Results published in ChEMBL document CHEMBL3045597, “Antihyperglycemic, -glucosidase inhibitory and DPPH free radical scavenging activity of 5-bromosalicylaldehyde and schiff bases” (Med Chem Res, 2011).
The source made the active and inactive calls. The calls are words filed in the database; no cut-off is given here.

Target: Lysosomal alpha-glucosidase (Rattus norvegicus) (UniProt Q6P7A9)
Assay: Inhibition of rat intestinal alpha-glucosidase using p-nitrophenyl- alpha-D-glucopyranoside as substrate at 300 uM preincubated for 5 min before addition of substrate measured after 10 min

Lysosomal alpha-glucosidase (Rattus norvegicus), sequence (Q6P7A9 whole entry): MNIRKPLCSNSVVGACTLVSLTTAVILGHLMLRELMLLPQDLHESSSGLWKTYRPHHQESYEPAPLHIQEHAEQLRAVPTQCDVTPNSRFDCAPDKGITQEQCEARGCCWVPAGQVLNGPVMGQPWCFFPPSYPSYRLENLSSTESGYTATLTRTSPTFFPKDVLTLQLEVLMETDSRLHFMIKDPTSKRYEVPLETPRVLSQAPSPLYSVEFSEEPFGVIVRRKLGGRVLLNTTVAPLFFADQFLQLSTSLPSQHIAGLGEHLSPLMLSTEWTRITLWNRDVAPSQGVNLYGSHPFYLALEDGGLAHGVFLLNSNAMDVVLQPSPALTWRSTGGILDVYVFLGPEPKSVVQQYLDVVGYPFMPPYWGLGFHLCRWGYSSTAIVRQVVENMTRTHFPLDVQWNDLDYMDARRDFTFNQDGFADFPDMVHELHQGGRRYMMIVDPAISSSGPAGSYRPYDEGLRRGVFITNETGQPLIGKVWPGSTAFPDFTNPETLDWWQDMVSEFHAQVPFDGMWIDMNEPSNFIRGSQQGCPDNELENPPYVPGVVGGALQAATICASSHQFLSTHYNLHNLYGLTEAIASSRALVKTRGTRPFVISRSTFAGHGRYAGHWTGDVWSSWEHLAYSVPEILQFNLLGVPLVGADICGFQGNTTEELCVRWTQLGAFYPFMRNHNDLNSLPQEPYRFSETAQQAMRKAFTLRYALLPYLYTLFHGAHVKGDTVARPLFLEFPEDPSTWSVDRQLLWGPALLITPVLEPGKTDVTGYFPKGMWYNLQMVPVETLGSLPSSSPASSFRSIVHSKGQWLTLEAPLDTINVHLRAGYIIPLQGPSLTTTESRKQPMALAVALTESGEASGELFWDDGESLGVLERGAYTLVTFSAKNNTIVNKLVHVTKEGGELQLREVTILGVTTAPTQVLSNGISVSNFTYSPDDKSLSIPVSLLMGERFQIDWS

Row | inhibition [%] | SMILES
1 | 85.8 | O=Cc1cc(Br)ccc1O

Test system: Radical scavenging activity
Assay: Antioxidant activity assessed as DPPH free radical scavenging activity by measuring 50% radical scavenging concentration after 20 min
Format: functional

Row | SMILES | Activity [µM]
2 | Oc1ccccc1/C=N\c1ccccc1/N=C/c1ccccc1O | 115

Test system: Rattus norvegicus
Assay: Antihyperglycemic activity in starch fed Rattus norvegicus Wistar (rat) assessed as reduction of plasma glucose level at 50 mg/kg administered 15 min before starch feeding measured up to 60 min
Format: functional, organism-based
Set-up: dose 50 mg/kg

Row | SMILES | Activity
3 | O=Cc1cc(Br)ccc1O | Active

Test system: Radical scavenging activity
Assay: Antioxidant activity assessed as DPPH free radical scavenging activity at 250 uM after 20 min
Format: functional

Row | SMILES | Activity
4 | Oc1ccc(Br)cc1/C=N/c1ccc(Cl)cc1 | 13.5%
5 | Oc1ccccc1/C=N/c1ccccc1 | 9.29%
6 | Oc1ccc(Br)cc1/C=N/c1ccccc1 | 9.27%
7 | Oc1ccccc1/C=N/c1ccc(Cl)cc1 | inactive
8 | O=[N+]([O-])c1ccc(/N=C/c2cc(Br)ccc2O)cc1 | inactive
9 | Oc1ccc(Br)cc1/C=N/CC/N=C/c1cc(Br)ccc1O | inactive
10 | Oc1ccccc1/C=N/CC/N=C/c1ccccc1O | inactive
11 | O=[N+]([O-])c1ccc(/N=C/c2ccccc2O)cc1 | inactive
12 | COc1ccc(/N=C/c2cc(Br)ccc2O)cc1 | 48.7%
13 | Oc1ccccc1/C=N\c1ccccc1/N=C/c1ccccc1O | 75.3%

Target: Lysosomal alpha-glucosidase (Rattus norvegicus) (UniProt Q6P7A9)
Assay: Inhibition of rat intestinal alpha-glucosidase using p-nitrophenyl- alpha-D-glucopyranoside as substrate at 200 uM preincubated for 5 min before addition of substrate measured after 10 min

Row | SMILES | inhibition
14 | C/C(=N\CC/N=C(\C)c1ccccc1)c1ccccc1 | Active
15 | Oc1ccccc1/C=N/c1ccccc1 | Active
16 | Oc1ccccc1/C=N/c1ccc(Cl)cc1 | 6.63%
17 | C/C(=N\NC(=O)c1ccccc1)c1ccc(C)cc1 | 31.6%
18 | O=[N+]([O-])c1ccc(/N=C/c2ccccc2O)cc1 | 95.6%
19 | Oc1ccccc1/C=N\c1ccccc1/N=C/c1ccccc1O | 57.9%
20 | COc1ccc(/N=C/c2ccccc2O)cc1 | 11.4%

Next, values leading:

Row | inhibition | SMILES
21 | inactive | Oc1ccc(Br)cc1/C=N/c1ccc(Cl)cc1
22 | 85.8% | O=Cc1cc(Br)ccc1O
23 | Active | Oc1ccc(Br)cc1/C=N/c1ccccc1
24 | Active | O=[N+]([O-])c1ccc(/N=C/c2cc(Br)ccc2O)cc1
25 | 14.4% | Oc1ccc(Br)cc1/C=N/CC/N=C/c1cc(Br)ccc1O
26 | 29.1% | Oc1ccccc1/C=N/CC/N=C/c1ccccc1O
27 | Active | COc1ccc(/N=C/c2cc(Br)ccc2O)cc1

Test system: Rattus norvegicus
Assay: Antihyperglycemic activity in starch fed Rattus norvegicus Wistar (rat) assessed as reduction of AUC of plasma glucose level at 50 mg/kg administered 15 min before starch feeding
Format: functional, organism-based
Set-up: dose 50 mg/kg

Row | SMILES | Activity
28 | O=Cc1cc(Br)ccc1O | Active
